Legend:
Format in all cases: physicochemical
[1] = hygroscopicity by dynamic vapor sorption (DVS); settings: for 1st adsorption Percentage of weight change / 1st desorption Percentage of weight change / 2nd adsorption Percentage of weight change / 2nd desorption Percentage of weight change: 40-0-95-0-40%RH, 240 min per step
Protocol: ProUmid SPSx-1µ Advance was used for analysis of a sample. The sample to be tested was approximately in an amount of 5-50 mg. A temperature in a test chamber was controlled at 25±1°C, a relative humidity cycle was […], a step size was 10%, an equilibrium time was 240 minutes per step, and mass data was recorded every 20 seconds.
A DVS cycle was 40-0-95-0-40%RH. XRPD detection was performed on samples after the DVS testing to determine whether crystal form transformation occurred.

[2] = stability of crystal forms (XRPD, HPLC, color)
Protocol: (§1) A 2θ scanning angle of the sample was 3°-40°, a scanning step size was 0.02°, and a scanning time per step was 0.12 s/step. An optical tube voltage and a current were 40 kV and 40 mA, respectively. During sample preparation, an appropriate amount of the sample was placed on a sample tray and flattened with a tool such as a glass slide to ensure a smooth and even surface.
An Agilent 1260 infinityII binary pump was used for solubility and stability testing.
The stability of samples under these conditions was detected by XRPD and HPLC, and whether the samples had color changes was observed.
A certain amount of the crystal form C of the compound of formula (I) was weighed and placed in an open container at 25°C/92.5%RH for 1 week. A certain amount of the crystal form C of the compound of formula (I) was weighed and placed in a closed container at 60°C for 1 week. The stability of samples under these conditions was detected by XRPD and HPLC, and whether the samples had color changes was observed. Table 16 Stability test results of the crystal form C of the compound of formula (I)
A certain amount of the crystal form D of the compound of formula (I) was weighed and placed in an open container at 25°C/92.5%RH for 1 week. A certain amount of the crystal form D of the compound of formula (I) was weighed and placed in a closed container at 60°C for 1 week. The stability of samples under these conditions was detected by XRPD and HPLC, and whether the samples had color changes was observed. Table 17 Stability test results of the crystal form D of the compound of formula (I)
A certain amount of the crystal form E of the compound of formula (I) was weighed and placed in an open container at 25°C/92.5%RH for 1 week. A certain amount of the crystal form E of the compound of formula (I) was weighed and placed in a closed container at 60°C for 1 week. The stability of samples under these conditions was detected by XRPD and HPLC, and whether the samples had color changes was observed. Table 18 Stability test results of the crystal form E of the compound of formula (I)

[3] = competitive suspension tests of crystal forms (XRPD)
Protocol: as §1
Resulting suspensions were suspended at 5°C, 25°C, and 50°C for 3 days, respectively. The resulting suspensions were centrifuged, and solid portions were detected by XRPD.

[4] = stability of crystal forms (XRPD, HPLC, color); settings: 25°C/92%RH open, 1 week

NC(=O)[C@H]1CCCc2c1[nH]c1ccc(Cl)cc21 [Crystal form F, (S)-6-chloro-2,3,4,9-tetrahydro-1H-carbazole-carboxamide]
Hygroscopicity Conclusion ([1]; DVS at 25°C, Table 13): No hygroscopicity
1st adsorption Percentage of weight change ([1]; Relative humidity 0% at 25°C): 0.1%
1st desorption Percentage of weight change ([1]; Relative humidity 0% at 25°C): 0.1%
2nd adsorption Percentage of weight change ([1]; Relative humidity 0% at 25°C): 0.3%
2nd desorption Percentage of weight change ([1]; Relative humidity 0% at 25°C): 0.3%
1st adsorption Percentage of weight change ([1]; Relative humidity 10% at 25°C): 0.2%
1st desorption Percentage of weight change ([1]; Relative humidity 10% at 25°C): 0.3%
2nd adsorption Percentage of weight change ([1]; Relative humidity 10% at 25°C): 0.2%
2nd desorption Percentage of weight change ([1]; Relative humidity 10% at 25°C): 0.3%
1st adsorption Percentage of weight change ([1]; Relative humidity 20% at 25°C): 0.2%
1st desorption Percentage of weight change ([1]; Relative humidity 20% at 25°C): 0.1%
2nd adsorption Percentage of weight change ([1]; Relative humidity 20% at 25°C): 0.2%
2nd desorption Percentage of weight change ([1]; Relative humidity 20% at 25°C): 0.4%
1st adsorption Percentage of weight change ([1]; Relative humidity 30% at 25°C): 0.1%
1st desorption Percentage of weight change ([1]; Relative humidity 30% at 25°C): 0.1%
2nd adsorption Percentage of weight change ([1]; Relative humidity 30% at 25°C): 0.0%
2nd desorption Percentage of weight change ([1]; Relative humidity 30% at 25°C): 0.1%
1st adsorption Percentage of weight change ([1]; Relative humidity 40% at 25°C): 0.2%
1st desorption Percentage of weight change ([1]; Relative humidity 40% at 25°C): 0.2%
2nd adsorption Percentage of weight change ([1]; Relative humidity 40% at 25°C): 0.0%
2nd desorption Percentage of weight change ([1]; Relative humidity 40% at 25°C): 0.4%
1st adsorption Percentage of weight change ([1]; Relative humidity 50% at 25°C): 0.2%
2nd desorption Percentage of weight change ([1]; Relative humidity 50% at 25°C): 0.2%
1st adsorption Percentage of weight change ([1]; Relative humidity 60% at 25°C): 0.2%
2nd desorption Percentage of weight change ([1]; Relative humidity 60% at 25°C): 0.2%
1st adsorption Percentage of weight change ([1]; Relative humidity 70% at 25°C): 0.2%
2nd desorption Percentage of weight change ([1]; Relative humidity 70% at 25°C): 0.2%
1st adsorption Percentage of weight change ([1]; Relative humidity 80% at 25°C): 0.1%
2nd desorption Percentage of weight change ([1]; Relative humidity 80% at 25°C): 0.0%
1st adsorption Percentage of weight change ([1]; Relative humidity 90% at 25°C): 0.3%
2nd desorption Percentage of weight change ([1]; Relative humidity 90% at 25°C): 0.1%
1st adsorption Percentage of weight change ([1]; Relative humidity 95% at 25°C): 0.1%
2nd desorption Percentage of weight change ([1]; Relative humidity 95% at 25°C): 0.1%
XRPD after DVS testing ([1]; after DVS cycle 40-0-95-0-40%RH at 25°C): Crystal form F
Color ([2]; 60°C, closed, 1 week): No change
Degradation (%) ([2]; 60°C, closed, 1 week): None
Purity (%) ([2]; 60°C, closed, 1 week): 99.8%
Purity (%) ([2]; Initial): 99.8%
crystal form after competitive suspension slurrying ([3]; isopropanol, isopropyl acetate, and acetonitrile, 5°C, 25°C, 50°C, 3 days): converted into the crystal form F
relative stability of crystal forms ([3]; temperature range of 5°C to 50°C): more stable than the crystal forms B and G
Color [4]: No change
Degradation (%) [4]: None
Purity (%) [4]: 99.8%
